Test results published in patent publication US20210121482A1, “WITHANOLIDES FOR THE TREATMENT OF CACHEXIA” (University of Louisville Research Foundation, Inc., priority 2019, published 2021).

How the values were obtained:
[1] = system: inflammatory cytokines and NLRP3 inflammasome markers in TA muscle; assay: qPCR of TA muscle; format: in vivo, Mus musculus
Protocol: (§1) Total RNA Extraction and qPCR: Isolation of total RNA from xenografted tumor samples was performed using an RNeasy® Mini Kit (Qiagen Catalog #74104) according to the manufacturer's instructions. Isolation of total RNA from skeletal muscle was performed using an RNeasy® Fibrous Tissue Mini Kit (Qiagen Catalog #74704) according to the manufacturer's instructions. First strand cDNA was synthesized using 1 μg of purified RNA and a commercially available kit (iScript™ cDNA synthesis, Bio-Rad Catalog #170-8891), Quantification of mRNA expression was performed similar to as previously described (Hindi and Kumar, 2016) using the SYBR Green dye method on a StepOnePlus™ system (Applied Biosystems) using gene-specific primers, as shown in Table 1.

[2] = Change in tumor-free body weight (Example 3); format: in vivo, mice; details: tumor-bearing, 2 and 4 mg/kg, vs tumor-bearing vehicle
Text: Experimental tumors were induced as described in Example 2.
No significant difference in tumor weight between the two doses of WFA was observed (p=0.65).

[3] = Body and organ weight, A2780 xenograft mice (Example 1); details: for BW Week 2 / BW Week 3 / BW Week 1 / Initial BW / Kidney weight normalized / Liver weight normalized / Spleen weight normalized: tumor-bearing; for Initial BW: baseline, before treatment
TA, GA and QF muscles = assay: Muscle mass and TA myofiber CSA (Example 2); format: in vivo, mice
Text: Histology and Morphometric Analysis of Skeletal Muscle: Select muscles of the lower limb of the mice were isolated, flash frozen in liquid nitrogen, mounted in O.C.T. embedding medium, and then sectioned using a microtome cryostat. To assess tissue morphology, 10 μm thick transverse sections were cut from the mid-belly of the tibialis anterior (TA) and then subjected to Hematoxylin and Eosin (H&E) staining. Images of H&E-stained TA muscle sections were quantified using Fiji software (National Institute of Health software) to measure myofiber cross-sectional area (CSA). Skeletal myofiber CSA was calculated by analyzing ˜500-700 myofibers per muscle as previously described (32).
Post-mortem, select muscles of the lower extremities, including tibialis anterior (TA), gastrocnemius (GA), and quadriceps femoris (QF), were collected and weighed to detect changes in muscle mass, with results shown in FIG. 14A-14C, respectively. Muscle weights were normalized by the initial body weight (I.B.W.) to account for differences in the size of the mouse/muscle at baseline, while excluding the confounding effect of tumor burden on body weight.

[4] = system: ovarian cancer-induced cachexia; assay: Grip strength (Example 1); format: in vivo, mice; details: for normalized forelimb grip strength: 2 and 6 mg/kg
Protocol: Grip Strength Measurements: Before assessment, mice were weighed on a commercially available digital scale. Forepaw and total grip strength of mice were measured using a digital grip strength meter (Columbus Instruments, Columbus, Ohio, USA) and then normalized by total body weight. Before the beginning of the test, the mice were acclimatized for five minutes. The mouse was allowed to grasp the total paw pull-bar assembly, and in a separate experiment the forepaw pull-bar assembly. The mouse was then gently drawn with constant force in a straight line away from the device until the mouse could no longer grasp the bar. Force at time of release was recorded as the peak tension. Each mouse was tested five times with a delay of 20-40 seconds between each testing. The mean peak tension was calculated from the recordings normalized by total body weight.

[5] = system: Pax7, Myod1, UPR, UPS and ALS markers in GA muscle; assay: qPCR of GA muscle (Pax7, Myod1, UPR, UPS, ALS markers); format: in vivo, Mus musculus
Protocol: as §1
Total RNA Extraction and qPCR: as in Example 1.

[6] = system: poly-ubiquitinated proteins; assay: Immunoblot for poly-ubiquitinated proteins; format: in vivo, mice; details: WFA treatment, 2 and 4 mg/kg
Protocol: Protein Extraction and Western Blotting: Quadriceps femoris (QF) samples were homogenized in chilled RIPA buffer (Sigma) supplemented with a Complete Mini Protease Inhibitor tablet (Roche Molecular Biochemicals, Indianapolis, Ind.). Tissue lysates were centrifuged at 10,000 RPM and the supernatants were collected. Protein concentration for each sample was determined using the Bradford reagent method (Bio-Rad), according to manufacturer's instructions. Protein lysates (50 μg) were separated on 10% SDS-PAGE gels at 100 volts for 2 h. The proteins were transferred to nitrocellulose membranes at 100 volts for 90 minutes. The membranes were blocked with 5% non-fat milk in Tris Buffered Saline supplemented with Tween-20 (0.5%; TBS-T) for 30-60 minutes. The membranes were then washed 3 times with TBS-T for 5 minutes. The membranes were then incubated with primary antibody at 4° C. overnight. The membranes were washed 3 times with TBS-T for 5 minutes each followed by incubation in TBS-T containing horseradish peroxidase conjugated secondary antibody (1:2000 dilution) for 1 h. The membranes were rinsed 3 times with TBS-T for 5 minutes each. Visualization of immunoreactive bands was enhanced using chemiluminescence reagents (Sigma). […]

[7] = 2 mg/kg, vs vehicle treated group
[8] = 6 mg/kg, vs vehicle treated group
[9] = WFA 2 mg/kg IP every three days
[10] = WFA 6 mg/kg IP every three days
[11] = tumor-bearing, 2 mg/kg, vs tumor-bearing vehicle
[12] = tumor-bearing, 4 mg/kg, vs tumor-bearing vehicle
[13] = tumor-bearing, 2 and 4 mg/kg, vs tumor-bearing vehicle
[14] = tumor-free, 4 mg/kg, vs tumor-free vehicle
[15] = tumor-free, WFA-treated groups vs vehicle-treated

Structure (SMILES): CC1=C(CO)C(=O)O[C@@H]([C@@H](C)[C@H]2CC[C@H]3[C@@H]4C[C@H]5O[C@]56[C@@H](O)C=CC(=O)[C@]6(C)[C@H]4CC[C@]23C)C1 [WFA, (4β,5β,6β,22R)-4,27-Dihydroxy-5,6:22,26-diepoxyergosta-2,24-diene-1,26-dione]
- relative mRNA levels of TNFα, IFNγ, IL-6, MIP-2 in TA muscle [1, 7]: significantly reduced
- transcript levels of HO-1 in TA muscle [1, 7]: increased compared to the vehicle treated group
- transcript levels of NLRP3, CASP1, IL-1β, IL-18 in TA muscle [1, 7]: significant reduction in all tested NLRP3 inflammasome transcript levels
- relative mRNA levels of TNFα, IFNγ, IL-6, MIP-2 in TA muscle ([1]; 6 mg/kg, vs control and WFA 2 mg/kg groups): robust increase in the expression of select proinflammatory cytokines
- transcript levels of CASP1 and IL-1β in TA muscle ([1]; 6 mg/kg, vs control group): significantly increased
- transcript levels of HO-1 in TA muscle ([1]; 6 mg/kg, vs control or vehicle treated groups): no significant changes in HO-1 expression
- relative mRNA levels of NLRP3 and IL-18 in TA muscle [1, 8]: significantly reduced
- relative transcript levels of IFNγ and MIP-2 in TA muscle [1, 8]: significantly reduced
- relative transcript levels of TNFα and IL-6 in TA muscle ([1]; 6 mg/kg, vs vehicle treated group (p=0.09 and <0.0001)): increased
- absolute change in tumor-free body weight [2]: significant preservation of body weight loss
- body weight fold change ([3]; 2 and 6 mg/kg, at termination of study, all groups compared): No statistically significant difference between the groups
- BW Week 2 [3, 9]: 20.43 ± 2.43 g
- BW Week 3 [3, 9]: 22.68 ± 2.53 g
- BW Week 1 ([3]; WFA 2 mg/kg group): 19.98 ± 2.33 g
- Initial BW ([3]; WFA 2 mg/kg group): 19.14 ± 1.50 g
- Kidney weight normalized ([3]; WFA 2 mg/kg): 4.95 ± 0.79 mg/g
- Liver weight normalized ([3]; WFA 2 mg/kg): 47.16 ± 15.88 mg/g
- Spleen weight normalized ([3]; WFA 2 mg/kg): 2.20 ± 1.74 mg/g
- BW Week 2 [3, 10]: 21.37 ± 1.32 g
- BW Week 3 [3, 10]: 23.57 ± 1.23 g
- BW Week 1 ([3]; WFA 6 mg/kg group): 20.70 ± 1.35 g
- Initial BW ([3]; WFA 6 mg/kg group): 19.60 ± 0.76 g
- Kidney weight normalized ([3]; WFA 6 mg/kg): 5.45 ± 0.49 mg/g
- Liver weight normalized ([3]; WFA 6 mg/kg): 41.18 ± 3.60 mg/g
- Spleen weight normalized ([3]; WFA 6 mg/kg): 2.78 ± 1.45 mg/g
- normalized wet weight of TA and GA muscles (TA, GA and QF muscles; tumor-bearing, 2 and 4 mg/kg, vs vehicle-treated): statistically significant increase in normalized wet weight of the TA and GA muscles
- average myofibrillar cross-sectional area (CSA) in TA muscle (TA, GA and QF muscles; tumor-bearing, WFA 2 mg/kg): 1629.72±94.96 μm2
- average myofibrillar cross-sectional area (CSA) in TA muscle (TA, GA and QF muscles; tumor-bearing, WFA 4 mg/kg): 1748.13±68.90 μm2
- normalized weight of TA, GA and QF muscles (TA, GA and QF muscles; tumor-free, 4 mg/kg, vs vehicle-treated, normalized by initial body weight): significant increase in normalized weight of the TA, GA, and QF muscles
- average myofibrillar cross-sectional area (CSA) in TA muscle (TA, GA and QF muscles; tumor-free, WFA 2 mg/kg): 1916.39±85.72 μm2
- average myofibrillar cross-sectional area (CSA) in TA muscle (TA, GA and QF muscles; tumor-free, WFA 4 mg/kg): 1904.98±80.50 μm^2
- normalized total limb grip strength ([4]; 2 mg/kg, vs vehicle treated group, weeks 1-3): significant protective effect on total limb grip strength
- normalized total limb grip strength [4, 8]: initially protective, but the grip strength eventually deteriorated to the same extent as the vehicle treated group
- normalized forelimb grip strength ([4]; vs control group, significant at week 3): reduction in normalized grip strength
- normalized forelimb grip strength ([4]; vs vehicle treated group, significant by week 2): attenuation of normalized forelimb grip strength
- relative transcript levels of Ddit3 in GA muscle [5, 11]: upregulation of relative transcript levels of Ddit3
- relative transcript levels of Ern1 in GA muscle [5, 11]: no significant difference in relative transcript levels of Ern1
- transcript levels of Eif2ak3, Atf4, Pppr1r15a, Hspa5, Hsp90B1, Tnfrsf10B in GA muscle [5, 11]: reduction in Eif2ak3, Atf4, Pppr1r15a, Hspa5, Hsp90B1, and Tnfrsf10B
- relative transcript levels of Ddit3 and Ern1 in GA muscle [5, 12]: significant increase in relative transcript levels of Ddit3 and Ern1
- transcript levels of Eif2ak3, Atf4, Pppr1r15a, Hspa5, Hsp90B1, Tnfrsf10B in GA muscle [5, 12]: decrease in relative transcript levels of Eif2ak3, Atf4, Pppr1r15a, Hspa5, Hsp90B1, and Tnfrsf10B
- relative mRNA expression of Sqstm1, Map1lc3b, Becn1 [5, 13]: significant dose-dependent reduction in relative mRNA expression of the select ALS markers
- transcription of Fbxo30, Fbxo32, Trim63, Traf6 [5, 13]: statistically significant dose-dependent transcriptional downregulation of Fbxo30, Fbxo32, Trim63, and Traf6
- relative transcript levels of Pax7 and Myod1 in GA muscle ([5]; tumor-free and tumor-bearing WFA-treated groups): significant increases in both Pax7 and Myod1
- relative transcriptional expression of Fbxo30 and Traf6 ([5]; tumor-free, 2 mg/kg, vs vehicle-treated): significant reduction in the relative transcriptional expression of Fbxo30 and Traf6
- relative gene expression of Fbxo30, Fbxo32, Trim63, Traf6 [5, 14]: significant reduction in relative gene expression of Fbxo30, Fbxo32, Trim63, and Traf6
- relative gene expression of Sqstm1, Map1lc3b, Becn1 [5, 14]: significant reduction in relative gene expression
- transcript levels of Atf4 and Tnfrsf10B in GA muscle [5, 15]: no change in transcript levels of Atf4 and Tnfrsf10B
- transcript levels of Eif2ak3, Ddit3, Pppr1r15a, Ern1 in GA muscle [5, 15]: transcriptional upregulation of Eif2ak3, Ddit3, Pppr1r15a, and Ern1
- transcript levels of Hspa5 and Hsp90B1 in GA muscle [5, 15]: downregulation of Hspa5 and Hsp90B1
- pan-ubiquitination of proteins (immunoblot) [6]: reduced in response to WFA treatment
